Data published in patent US20210380946A1 (priority 2018, published 2021).

Experiment: Clinical trial: neutropenia, thrombocytopenia and toxicity post-melphalan reduced-intensity conditioning
Conditions: for Days ANC >500 (Absolute Neutrophil Count) / Days Platelets <50: 140 mg/m^2 melphalan single dose

SMILES: N[C@@H](Cc1ccc(N(CCCl)CCCl)cc1)C(=O)O [Melphalan, melphalan]
- Days ANC >500 (Absolute Neutrophil Count) (Subject 1): 9 days
- Days Platelets <50 (Subject 1): 13 days
- Days ANC >500 (Absolute Neutrophil Count) (Subject 2): 7 days
- Days Platelets <50 (Subject 2): 8 days
- chemotherapy related toxicity: cytopenia (both subjects): temporary cytopenia
- chemotherapy related toxicity: transaminases (both subjects): temporary mild evelvations in transaminases
- chemotherapy related toxicity: mucositis (both subjects, follow-up 1 year and 6 months): 2-3 grade
